# Measured values from patent publication US20220000871A1, “METHODS AND COMPOSITIONS FOR TREATING NEURODEGENERATIVE DISEASES USING MODULATORS OF PHOSPHOGLYCERATE KINASE 1 (PGK1) ACTIVITY” (UNIVERSITY OF IOWA RESEARCH FOUNDATION, priority 2019, published 2022).
# What was measured:
# [1] = tested on: MPTP-treated mice; experiment: MPTP mouse model; format: in vivo; conditions: SNc, western blot, FIG. 17B
# Protocol: A) Schematic for experiments in panels B-K. C57BL/6 mice (8 week-old) received 4 i.p. injections of MPTP (20 mg/kg at 2 hr intervals) or vehicle on day 0. […] N=6. […] Quantification of TH protein normalized to control (C,D). N=6. E-G) Example of immunostaining of TH in SNc and striatum (E, scale bars, 500 μm SNc, 1 mm striatum). Quantification of TH-positive neurons in SNc (F) and TH intensity in the striatum (G). N=6. H,I) Dopamine (DA) content in striatum and SnC. N=6. J) Percentage of TH-positive neurons that were positive for TUNEL staining. N=6. K) Behavioral response of mice in rotarod test. Data are duration that mice remained on an accelerated rolling rod normalized to mice at day 0. N=8. Data are examples and mean±SEM. […] Statistical analysis at day 7 and day 14 was Mann-Whitney. In the figure, *p<0.05, **p<0.01.
# FIG. 10. […] A) Schematic of experiments in panels B-F. C57BL/6 mice (8 week-old) received 4 i.p. injections of MPTP (20 mg/kg at 2 hr intervals) or vehicle on day 0. […] B,C) Pyruvate and ATP levels in mouse SNc. N=6. D) Mitochondrial DNA (mDNA, 16S and ND1) relative to nuclear DNA (nDNA, intron β-globin) by quantitative PCR of mouse striatum and SNc. N=3. E,F) VDAC (E) and PHB1 (F) protein levels in striatum and SNc assayed by western blot and normalized to control. N=6.
# FIG. 12. […] A) Schematic for experiments in panels B-J. C57BL/6 mice (8 week-old) received 4 i.p. injections of MPTP (20 mg/kg at 2 hr intervals) or vehicle on day 0. […] B) Example of TH immunostaining in the SNc on days 7 and 14. Scale bar, 500 μm. C-F) Measurement of DOPAC in mouse striatum (C) and SNc (D) and measurement of HVA in striatum (E) and SNc (F). (N=6). G) Example of TH and TUNEL co-staining in the SNc. TH (green), TUNEL (red), and DAPI (nuclei, blue). Scale bar, 25 μm. Quantitative data are in FIG. 2J. H) Left panels are Nissl staining of neurons in the striatum. Samples were obtained 7 days after MPTP injection. Right panels show the quantification. […] Scale bar, 400 μm. N=3 per group. I,J) Behavioral response of mice in the pole test. (I) Time mice took to turn their heads from upward to downward. (J) Time mice took to climb down the pole. N=8.
# MPTP was injected (i.p.) on one day at 20 mg/kg for four times at 2-hour intervals, as previously described (4). […] At the end of the drug or saline treatment, behavioral tests including rotarod test and pole test were carried out before the animals were sacrificed.
# The rotarod test was carried out using an automated rotarod (E103, UGO BASILE). At a fixed speed of 15 revolutions per minute (rpm), mice were pre-trained for two consecutive days until they were able to remain on the rod for more than 60 seconds. […] The latency to fall was recorded for a maximum recording time of 600 seconds. The behavior was monitored by a video camera.
# This test was carried out by leaving a pole in the cage where the mice were housed. The pole test was performed on the 14th day after MPTP injection as previously described (9). The mouse was placed in a head-upward position on top of a vertical pole (diameter 8 mm, height 55 cm) with a ball (diameter 2.5 cm) on the head of the pole. The pole was wrapped with the nylon gauze to prevent the mouse from slipping down. Each mouse was trained twice before testing. The time that the mouse took to turn his head from upward to downward (Time: Turn) and the time the mouse took to reach the floor with his forepaws (Time: Locomotion Activity) were recorded. Each mouse was tested three times with 5 min. intervals, and the average time was quantified.
# [2] = tested on: Hela cell stably expressed FUS-GFP; experiment: Hela cells stably expressing FUS-GFP; format: cell-based
# Text: FIG. 19. Relative ATP levels in Hela cells expressing FUS-GTP after treatment with alfazosin (AZ) and rotenone (Rot).
# FIG. 20. Expression levels of FUS-GTP in cells treated with alfazosin (AZ), rotenone (Rot), and 17AAG, an inhibitor of the ATPase of HSP90.
# FIG. 21. Fluorescence recovery of FUS-GTP in Hela cells after photobleaching.
# We studied Hela cell stably expressed FUS-GFP to determine whether alfazosin (AZ) affected the molecule biology of FUS. (See FIG. 19). FUS forms phase-separated aggregates in cells and is commonly used to test agents that enhance or inhibit aggregate formation. The cells were maintained under mild hypoxic condition (5% oxygen), in which mitochondria function at their highest level. Alfazosin (AZ) was added in the culture medium with or without rotenone, a mitochondrial respiration inhibitor. 60 hours later, we measured the ATP level. The control (without AZ) is set as 1 (N=3).
# We quantified FUS-GFP protein levels using actin as a protein loading control. (See FIG. 20). Rotenone (Rot) is a mitochondrial respiration inhibitor, 17AAG is an inhibitor of the ATPase of HSP90. The control level of FUS/actin is set as 1, and relative ratio of other treatment is compared.
# (See FIG. 21). After 30 seconds photobleaching, the recovery of GFP signal was measured and plotted. N=10.
# [3] = tested on: Hek293T cells expressing APPswe-GFP; experiment: Hek293T cells transfected with APPswe-GFP; format: cell-based; conditions: 24 hours
# Text: FIG. 22. Expression of amyloid precursor protein (APP) Swedish mutation tagged with GFP (APPswe-GFP) in transfected Hek293T cells. Left panel—expression of GFP in cells treated with alfazosin (AZ). Right panel—relative intensity versus treatment with increasing concentrations of AZ.
# FIG. 23. Western blot quantification of APPswe-GFP in transfected Hek293T cells treated with increasing concentration of alfazosin (AZ).
# We also studied Hek293T cells that were transfected with the amyloid precursor protein (APP) Swedish mutation tagged with GFP (APPswe-GFP). (See FIG. 22). After transfection, AZ (1-10 μM) was added for 24 hours. The GFP intensity without AZ treatment was set as 1.
# AZ (1-100 μM) was added for 24 hours to Hek293T cells expressing APPswe-GFP. Then, cell lysates were collected for protein quantification by western blot. (See FIG. 23). The APP/actin ratio was plotted.
# [4] = tested on: M17 human neuroblastoma cells; experiment: Glycolysis and mitochondrial function in M17 cells; conditions: in vitro, 10 μM, 24 hr (ECAR)
# Protocol: Cells were incubated with mild hypoxia for 12 hr before study. Cells were cultured in a sealed chamber (Stemcell Technologies Vancouver, Canada) that was flushed with a humidified gas mixture composed of 5% 02, 5% carbon dioxide (CO2), and 90% nitrogen (N2) for 12 hr. […] Assays of ATP, pyruvate, and citrate synthase activities (CS) were performed according to the manufacturer's instructions.
# A Seahorse XV analyzer (XF^e-24, Seahorse Bioscience, Billerica, Mass., USA) was used to measure the oxygen consumption rate (OCR) and the extracellular acidification rate (ECAR) as previously described (18). The M17 cells and iPS cells were seeded in XF^e 24-well plates (Seahorse Bioscience), while the plates used for iPS cells were poly-D-lysine pre-coated. Assay medium was prepared by supplementing Seahorse XF^eBaseMedium minimal DMEM (Seahorse Bioscience) with 2 mM L-glutamine for a Glycolysis Stress Test assay or 2 mM L-glutamine, 1 mM pyruvate and 10 mM glucose for a Mito Stress Test assay (Sigma). pH was adjusted to 7.4 at 37° C. Probes (Seahorse Bioscience) were hydrated in the calibrant (Seahorse Bioscience) in a non-CO2 incubator at 37° C. overnight. Cells were washed twice with assay medium and kept in a non-CO2 incubator at 37° C. for 1 hr before analysis. Glucose, oligomycin and 2-deoxy-glucose (2-DG) were pre-loaded in the probe plate for Glycolysis Stress Test, while oligomycin, FCCP and a mixture of rotenone and antimycin A were used for Mito Stress Test.
# Citrate synthase (CS) activity, LDH assay and pyruvate level were detected using commercial kits according to the manufacturer's directions. ATP content in animal tissues and M17 cells were detected with the ATP assay kit following the manufacturer's directions.
Compound,tyrosine hydroxylase levels in MPTP-treated mice [1],"ATP increase with rotenone ([2]; 5% oxygen, 60 hours, with rotenone)","ATP level ([2]; 5% oxygen, 60 hours, without rotenone)","FUS-GFP protein levels ([2]; FUS/actin, western)",aggregation of APPswe-GFP (GFP intensity) ([3]; AZ 1-10 μM),"APPswe-GFP levels (APP/actin ratio, western blot) ([3]; AZ 1-100 μM)",glycolysis [4]
COc1cc2nc(N(C)CCCNC(=O)C3CCCO3)nc(N)c2cc1OC (stereo not drawn) [alfuzosin],increased,abolished,increases,reduced,decrease,reduces,increased
COc1cc2nc(N3CCN(C(=O)C4COc5ccccc5O4)CC3)nc(N)c2cc1OC (stereo not drawn) [doxazosin],increased,–,–,–,–,–,increased
